Data as given in ChEMBL document CHEMBL1201862, “PubChem BioAssay data set” (2004).
Active and inactive are the calls of the source.

Key:
[1] = general cell-killing toxicity readout – plate reader, dry powder samples, cytotoxicity control for PAX8 inhibitor project, dose response (AID 743021); assay type: functional, cell-based
[2] = biological target: Paired box protein Pax-8 (Homo sapiens, UniProt Q06710); experiment: PAX8 transcriptional activity inhibition in RMG-I – RMG-I cells, luciferase, cherry-pick, dose response (AID 687027); assay type: functional, cell-based;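 also: luciferase reporter driven by Pax8 target thyroperoxidase promoter measured by SteadyGlo luminescence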
[3] = general mammalian cell viability loss – activator set, cherry-pick, cytotoxicity control for miR-122 modulator project, dose response (AID 720690); assay type: functional, cell-based;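 also: HEK293T human cells scored for general mammalian cytotoxicity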
[4] = activation of miR-122 Renilla sensor silencing – cell-based, Huh7 psiCHECK-miR122, Renilla luciferase, cherry-picked, dose response (AID 651956); assay type: functional;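 also: huh7 hepatoma cells stably carrying a psiCHECK-2 miR-122 sensor plasmid; renilla luciferase signal reporting endogenous miR-122 activity after 48 h compound exposure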
[5] = Dd2 malaria parasite growth inhibition potency – SYBR Green, dry powder samples, dose response (AID 1159566); assay type: functional, cell-based;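 also: potency for growth inhibition with lower SYBR green DNA signal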
[6] = P. falciparum Dd2 growth inhibitors, dose response, SYBR Green, cherry-picked samples (AID 1159567); assay type: functional, cell-based
[7] = COV434 cell viability loss – plate reader, dry powder, SA7, cytotoxicity control for PAX8 inhibitor project, dose response (AID 743145); assay type: functional, cell-based
[8] = PAX5 cellular inhibition readout – cell-based, plate reader, dry powder samples, selectivity assay for PAX8 inhibitor project, dose response (AID 743047); assay type: functional;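 also: HEK293 cells carrying a Pax5 driven CD19 promoter luciferase reporter; potency of inhibitors that lower reporter luminescence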
[9] = toxicity to human HepG2 hepatoma cells – cell-based, plate reader, dry powder samples, cytotoxicity control, dose response (AID 1159569); assay type: functional;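 also: inhibitor potency with signal falling toward the positive control level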
[10] = growth inhibition of yeast DHODH-expressing 3D7 parasites – SYBR Green, dry powder samples, dose response (AID 1159570); assay type: functional, cell-based;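 also: parasite growth measured after 72 hours of compound exposure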
[11] = inhibitors acting on PAX2 in cells – cell-based, plate reader, dry powder samples, selectivity assay for PAX8 inhibitor project, dose response (AID 743048); assay type: functional;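 also: HEK293 cells carrying a WT1 promoter luciferase reporter driven by expressed Pax2; potency is for inhibition of Pax2 driven reporter signal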
[12] = growth inhibition of PfATP4-mutant resistant parasites – NITD609-resistant line, SYBR Green, dry powder, dose response (AID 1159571); assay type: functional, cell-based;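 also: parasites synchronized at ring stage by sorbitol before testing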
[13] = toxicity to human hepatoma HepG2 cells – cell-based, cherry-picked samples, cytotoxicity control, dose response (AID 1159577); assay type: functional
[14] = OVCAR-3 cell viability loss – plate reader, dry powder samples, PAX8 inhibitor project, dose response (AID 743044); assay type: functional, cell-based
[15] = A2780 cell killing – plate reader, dry powder samples, cytotoxicity control, dose response (AID 743046); assay type: functional, cell-based
[16] = OVCAR8 cell viability loss – plate reader, dry powder samples, PAX8 project, dose response (AID 743197); assay type: functional, cell-based; conditions: OVCAR-8
[17] = inhibition of Env-driven cell fusion – HIV entry, plate reader, dry powder, dose response (AID 687023); assay type: functional, cell-based
[18] = blockers of HIV-1 ZM109 envelope-driven cell-cell fusion – HeLa effector, CEM target cells, luciferase, cherry-pick, dose response (AID 652058); assay type: functional, cell-based;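 also: luciferase signal from HIV-1 Env mediated cell-cell fusion of effector and target cells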
[19] = blockers of HIV-1 envelope-mediated cell-cell fusion – cherry-pick, dose response (AID 652057); assay type: functional, cell-based
[20] = biological target: RNA-editing ligase 1, mitochondrial (Trypanosoma brucei brucei, UniProt P86926); experiment: inhibition of trypanosome RNA editing ligase – biochemical, fluorescence, Trypanosoma brucei, dose response (AID 1117295); assay type: functional
[21] = biological target: T1, Ubiquitin-conjugating enzyme E2 N (Homo sapiens, UniProt P61088); assay type: functional
T1 sequence (P61088 whole entry): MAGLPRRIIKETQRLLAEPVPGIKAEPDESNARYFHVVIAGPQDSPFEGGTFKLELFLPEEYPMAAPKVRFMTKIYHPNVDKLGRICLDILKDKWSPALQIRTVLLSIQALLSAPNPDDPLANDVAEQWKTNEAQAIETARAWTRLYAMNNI

[22] = glucagon-like peptide-1 release potency in STC-1, concentration-response, half-maximal inhibitory concentration in the STC-1 line (AID 1117345); assay type: functional, cell-based
[23] = HPDE-C7 pancreatic duct cell viability loss – fluorescence, HTS (AID 430); assay type: functional, cell-based; conditions: Homo sapiens
[24] = biological target: T1, Ubiquitin-conjugating enzyme E2 N; assay type: functional; remark: listed apart in the source
[25] = viability loss of HPDE-C7K cells – cell-based, fluorescence, HTS, primary screen (AID 431); assay type: functional; conditions: Homo sapiens
[26] = biological target: T2, Bcl-2-related protein A1 (Mus musculus, UniProt Q07440); assay type: functional;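 also: confirmatory dose–response counterscreen on Bfl-1, used to check hits from a UBC13 polyubiquitin inhibitor campaign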
T2 sequence (Q07440 whole entry): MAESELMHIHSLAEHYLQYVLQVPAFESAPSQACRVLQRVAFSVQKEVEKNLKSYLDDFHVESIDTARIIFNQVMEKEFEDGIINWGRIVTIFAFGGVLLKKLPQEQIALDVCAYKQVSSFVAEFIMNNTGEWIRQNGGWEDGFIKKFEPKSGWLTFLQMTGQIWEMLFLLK

[27] = biological target: T3, NADPH oxidase 1 (Homo sapiens, UniProt Q9Y5S8); assay type: functional, cell-based;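 also: Cell-based assay with luminescence read-out, IC50 derived from inhibitor dose-response curves; intracellular ROS from endogenous NOX1 in intact HT29 colon cancer cells; potency of inhibitors that lower the ROS luminescence signal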
T3 sequence (Q9Y5S8 whole entry): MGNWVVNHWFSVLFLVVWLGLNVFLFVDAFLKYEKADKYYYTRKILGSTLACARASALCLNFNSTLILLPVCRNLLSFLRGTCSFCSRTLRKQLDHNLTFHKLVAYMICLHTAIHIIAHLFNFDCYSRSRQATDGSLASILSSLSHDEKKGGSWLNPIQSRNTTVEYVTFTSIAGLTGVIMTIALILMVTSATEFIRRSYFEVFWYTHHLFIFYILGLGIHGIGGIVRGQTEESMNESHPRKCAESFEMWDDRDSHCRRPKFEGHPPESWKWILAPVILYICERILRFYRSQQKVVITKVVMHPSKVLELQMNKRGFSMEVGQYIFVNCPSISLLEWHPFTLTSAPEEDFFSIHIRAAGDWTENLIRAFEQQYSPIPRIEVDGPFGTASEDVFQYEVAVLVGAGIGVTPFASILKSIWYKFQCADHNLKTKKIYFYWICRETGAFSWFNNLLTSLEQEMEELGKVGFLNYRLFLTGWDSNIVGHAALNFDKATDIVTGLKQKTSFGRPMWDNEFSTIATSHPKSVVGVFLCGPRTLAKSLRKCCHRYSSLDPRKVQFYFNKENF

[28] = Potency on glucagon-like peptide 1 release, dose-response in NCI-H716 cell line, half maximal inhibitory concentration (AID 1117344); assay type: functional, cell-based

Sequence of Paired box protein Pax-8 (Q06710 whole entry): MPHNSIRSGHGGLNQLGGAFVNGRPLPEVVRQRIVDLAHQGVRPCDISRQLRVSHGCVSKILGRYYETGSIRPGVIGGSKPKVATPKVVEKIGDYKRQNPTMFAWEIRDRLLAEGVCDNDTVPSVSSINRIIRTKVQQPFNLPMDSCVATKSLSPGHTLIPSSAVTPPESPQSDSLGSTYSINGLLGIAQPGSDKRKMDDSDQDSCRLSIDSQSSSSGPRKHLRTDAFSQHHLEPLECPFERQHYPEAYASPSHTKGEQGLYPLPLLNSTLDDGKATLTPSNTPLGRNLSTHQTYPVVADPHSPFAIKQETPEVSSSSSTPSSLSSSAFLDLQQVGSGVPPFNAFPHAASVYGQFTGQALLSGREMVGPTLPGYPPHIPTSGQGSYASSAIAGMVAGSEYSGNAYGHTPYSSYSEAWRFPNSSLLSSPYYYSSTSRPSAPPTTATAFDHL
Sequence of RNA-editing ligase 1, mitochondrial (P86926 whole entry): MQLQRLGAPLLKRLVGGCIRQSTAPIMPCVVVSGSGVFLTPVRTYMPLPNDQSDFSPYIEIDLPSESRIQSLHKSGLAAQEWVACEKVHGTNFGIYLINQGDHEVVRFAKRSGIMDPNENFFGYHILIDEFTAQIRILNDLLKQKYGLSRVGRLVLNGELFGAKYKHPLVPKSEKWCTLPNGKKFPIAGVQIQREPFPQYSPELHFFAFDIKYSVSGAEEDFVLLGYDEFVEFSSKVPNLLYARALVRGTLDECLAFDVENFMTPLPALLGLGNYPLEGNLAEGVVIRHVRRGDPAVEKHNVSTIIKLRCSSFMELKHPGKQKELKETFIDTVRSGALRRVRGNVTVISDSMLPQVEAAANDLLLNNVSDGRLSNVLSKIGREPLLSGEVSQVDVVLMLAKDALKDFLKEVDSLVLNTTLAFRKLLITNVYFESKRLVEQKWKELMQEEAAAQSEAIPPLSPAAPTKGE

## Nc1nc(N)c2c(ccc3c2ccn3Cc2cccc([N+](=O)[O-])c2)n1
[1]
  AC50: 20.3 µM (active)
[2]
  AC50: 1.5 µM (active)

## C[C@@H]1CN([C@@H](C)CO)C(=O)Cc2cc(NC(=O)C3CCCCC3)ccc2O[C@H]1CN(C)Cc1ccc(-c2ccccc2)cc1
[3]
  AC50: 16.8 µM (active)
[4]
  AC50: 14.3 µM (active)

## COc1ccccc1C#Cc1ccc([C@@H]2[C@@H](C#N)N(C(=O)C3CCCCC3)[C@H]2CO)cc1
[5]
  AC50: 0.562 µM (active)
[6]
  AC50: 1.37 µM (active)
[7]
  AC50: > 70 µM (inactive)
[8]
  AC50: 24.2 µM (active)
[9]
  AC50: 21.8 µM (active)
[10]
  AC50: 0.689 µM (active)
[11]
  AC50: 31.9 µM (active)
[12]
  AC50: 1.14 µM (active)
[13]
  AC50: > 39 µM (inactive)
[2]
  AC50: 6.05 µM (active)

## Cc1noc(C)c1S(=O)(=O)N(C)C[C@H]1OCCCC[C@@H](C)Oc2ccc(NS(=O)(=O)c3ccc(Cl)cc3)cc2C(=O)N([C@@H](C)CO)C[C@@H]1C
[14]
  AC50: 46.2 µM (active)
[15]
  AC50: 12.1 µM (active)
[16]
  AC50: > 70 µM (inactive)
[2]
  AC50: 10.5 µM (active)

## Cc1ccc(S(=O)(=O)N(C)C[C@@H]2Oc3ccc(NS(=O)(=O)c4c(C)noc4C)cc3CC(=O)N([C@H](C)CO)C[C@@H]2C)cc1
[17]
  AC50: 11.4 µM (active)
[18]
  AC50: 5.38 µM (active)
[19]
  AC50: 23.2 µM (active)

## C[C@@H]1CN([C@@H](C)CO)C(=O)c2c(c3ccccc3n2C)-c2ccccc2CO[C@H]1CN(C)C(=O)Nc1cccc(Cl)c1Cl
[5]
  AC50: 1.49 µM (active)
[6]
  AC50: 1.86 µM (active)
[9]
  AC50: 27.4 µM (active)
[10]
  AC50: 2.3 µM (active)
[12]
  AC50: 2.21 µM (active)
[13]
  AC50: > 39 µM (inactive)

## COC(=O)C1=C(C)N(Cc2ccccc2C(F)(F)F)C(NCc2ccc(C(F)(F)F)cc2)=NC1c1ccc(C(F)(F)F)cc1 (stereo unspecified)
[20]
  IC50: > 96.6 µM (inactive)

## OCCN1CCN(CCCN2c3ccccc3Sc3ccc(Cl)cc32)CC1 [PERPHENAZINE]
[21]
  IC50: 13.4 µM (active)
[22]
  IC50: 15.5 µM (inactive)
[23]
  EC50: 10.4 µM (active)
[24]
  IC50: 16.2 µM (active)
[25]
  EC50: 10.5 µM (active)
[26]
  IC50: > 20 µM (inactive)
[27]
  IC50: > 17 µM (not active)
[28]
  IC50: 7.37 µM (inactive)
